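Compound exposure: 48 hours, 5 concentrations, 96-well plates. TGI marks complete inhibition of growth.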
Legend:
Test in all cases: DTP human tumour cell line panel, 48 h
HCT-116 colon = tested on: HCT-116 colon
SF-295 CNS = tested on: SF-295 CNS
SF-268 CNS = tested on: SF-268 CNS
SK-OV-3 ovarian = tested on: SK-OV-3 ovarian
SF-539 CNS = tested on: SF-539 CNS
CAKI-1 renal = tested on: CAKI-1 renal
UACC-257 melanoma = tested on: UACC-257 melanoma
A498 renal = tested on: A498 renal
RXF 393 renal = tested on: RXF 393 renal
HOP-92 NSCLC = tested on: HOP-92 NSCLC
NCI-H23 lung = tested on: NCI-H23 lung
OVCAR-5 ovarian = tested on: OVCAR-5 ovarian
NCI-H460 lung = tested on: NCI-H460 lung
COLO 205 colon = tested on: COLO 205 colon
UACC-62 melanoma = tested on: UACC-62 melanoma
NCI-H226 lung = tested on: NCI-H226 lung
K-562 leukemia = tested on: K-562 leukemia
SK-MEL-5 melanoma = tested on: SK-MEL-5 melanoma
SW-620 colon = tested on: SW-620 colon
SR leukemia = tested on: SR leukemia
MCF7 breast = tested on: MCF7 breast
A549 NSCLC = tested on: A549 NSCLC
MDA-MB-435 = tested on: MDA-MB-435
EKVX NSCLC = tested on: EKVX NSCLC
T-47D breast = tested on: T-47D breast
NCI/ADR-RES ovarian = tested on: NCI/ADR-RES ovarian
RPMI-8226 leukemia = tested on: RPMI-8226 leukemia
CCRF-CEM leukemia = tested on: CCRF-CEM leukemia
KM12 colon = tested on: KM12 colon
HL-60(TB) leukemia = tested on: HL-60(TB) leukemia
HCC-2998 colon = tested on: HCC-2998 colon
OVCAR-8 ovarian = tested on: OVCAR-8 ovarian
SN12C renal = tested on: SN12C renal
MDA-N = tested on: MDA-N
NCI-H522 lung = tested on: NCI-H522 lung
TK-10 renal = tested on: TK-10 renal
HT29 colon = tested on: HT29 colon
UO-31 renal = tested on: UO-31 renal
MOLT-4 leukemia = tested on: MOLT-4 leukemia
OVCAR-3 ovarian = tested on: OVCAR-3 ovarian
LOX IMVI melanoma = tested on: LOX IMVI melanoma
HS 578T breast = tested on: HS 578T breast
HCT-15 colon = tested on: HCT-15 colon
SNB-75 CNS = tested on: SNB-75 CNS
M14 melanoma = tested on: M14 melanoma
HOP-62 NSCLC = tested on: HOP-62 NSCLC
DU-145 prostate = tested on: DU-145 prostate
ACHN renal = tested on: ACHN renal
786-0 renal = tested on: 786-0 renal
SNB-19 CNS = tested on: SNB-19 CNS
PC-3 prostate = tested on: PC-3 prostate
OVCAR-4 ovarian = tested on: OVCAR-4 ovarian
IGROV1 ovarian = tested on: IGROV1 ovarian
BT-549 breast = tested on: BT-549 breast
MDA-MB-231 breast = tested on: MDA-MB-231 breast
U251 CNS = tested on: U251 CNS
SK-MEL-28 melanoma = tested on: SK-MEL-28 melanoma
SK-MEL-2 melanoma = tested on: SK-MEL-2 melanoma
MALME-3M melanoma = tested on: MALME-3M melanoma

Measured: TGI

C=C1CC2CC(=O)C(O)C(C1)C2 (stereo not given)
> 100 µM: HCT-116 colon | SF-295 CNS | SF-268 CNS | SK-OV-3 ovarian | SF-539 CNS | CAKI-1 renal | UACC-257 melanoma | A498 renal | RXF 393 renal | HOP-92 NSCLC | NCI-H23 lung | OVCAR-5 ovarian | NCI-H460 lung | COLO 205 colon | UACC-62 melanoma | NCI-H226 lung | K-562 leukemia | SK-MEL-5 melanoma | SW-620 colon | SR leukemia | MCF7 breast | A549 NSCLC | MDA-MB-435 | EKVX NSCLC | T-47D breast | NCI/ADR-RES ovarian | RPMI-8226 leukemia | CCRF-CEM leukemia | KM12 colon | HL-60(TB) leukemia | HCC-2998 colon | OVCAR-8 ovarian | SN12C renal | MDA-N | NCI-H522 lung | TK-10 renal | HT29 colon | UO-31 renal | MOLT-4 leukemia | OVCAR-3 ovarian | LOX IMVI melanoma | HS 578T breast | HCT-15 colon | SNB-75 CNS | M14 melanoma | HOP-62 NSCLC | DU-145 prostate | ACHN renal | 786-0 renal

CSc1nc2c(c(=O)[nH]1)N=C(c1ccc(Cl)cc1)CC(c1ccccc1)N2 (stereo not given)
34 µM: COLO 205 colon
26.4 µM: A549 NSCLC
29.4 µM: NCI-H522 lung
44.9 µM: K-562 leukemia
28.8 µM: HCC-2998 colon
42.1 µM: DU-145 prostate
42.8 µM: MALME-3M melanoma
31.4 µM: OVCAR-8 ovarian | MDA-N | HT29 colon
40.9 µM: EKVX NSCLC
38.7 µM: HOP-92 NSCLC
24.7 µM: SNB-75 CNS
33.2 µM: MCF7 breast
34.2 µM: CAKI-1 renal | OVCAR-5 ovarian
26.1 µM: SK-MEL-5 melanoma
29 µM: ACHN renal
31.7 µM: SK-MEL-2 melanoma | HOP-62 NSCLC
39.1 µM: SW-620 colon
37.4 µM: CCRF-CEM leukemia
45.4 µM: BT-549 breast
45.3 µM: PC-3 prostate
29.5 µM: IGROV1 ovarian | NCI/ADR-RES ovarian
32.4 µM: SK-MEL-28 melanoma
32.6 µM: SF-295 CNS
39.3 µM: U251 CNS
40.1 µM: RPMI-8226 leukemia
58.7 µM: NCI-H226 lung
51.4 µM: HCT-116 colon
29.9 µM: SNB-19 CNS | M14 melanoma
38.3 µM: MDA-MB-435
39.6 µM: HL-60(TB) leukemia
30 µM: NCI-H23 lung | KM12 colon | SN12C renal | 786-0 renal
34.3 µM: UACC-257 melanoma
44.2 µM: LOX IMVI melanoma
26.8 µM: UO-31 renal
> 100 µM: A498 renal | SR leukemia
30.8 µM: MDA-MB-231 breast
34.4 µM: RXF 393 renal
61.8 µM: MOLT-4 leukemia
33.3 µM: SF-539 CNS
28.5 µM: OVCAR-3 ovarian
23.6 µM: OVCAR-4 ovarian

C(=NCCCN1CCN(CCCN=Cc2cccc3ccccc23)CC1)c1cccc2ccccc12
> 100 µM: SNB-19 CNS | HCT-116 colon | SF-295 CNS | SF-268 CNS | SK-OV-3 ovarian | SF-539 CNS | PC-3 prostate | CAKI-1 renal | OVCAR-4 ovarian | UACC-257 melanoma | NCI-H23 lung | OVCAR-5 ovarian | NCI-H460 lung | COLO 205 colon | UACC-62 melanoma | NCI-H226 lung | K-562 leukemia | IGROV1 ovarian | SW-620 colon | SR leukemia | A549 NSCLC | EKVX NSCLC | T-47D breast | NCI/ADR-RES ovarian | RPMI-8226 leukemia | CCRF-CEM leukemia | KM12 colon | MDA-MB-231 breast | HCC-2998 colon | OVCAR-8 ovarian | SN12C renal | U251 CNS | MDA-N | NCI-H522 lung | TK-10 renal | SK-MEL-28 melanoma | HT29 colon | UO-31 renal | MOLT-4 leukemia | OVCAR-3 ovarian | LOX IMVI melanoma | SK-MEL-2 melanoma | HS 578T breast | HCT-15 colon | SNB-75 CNS | M14 melanoma | MALME-3M melanoma | HOP-62 NSCLC | ACHN renal | 786-0 renal
90.8 µM: BT-549 breast
96.8 µM: MDA-MB-435
78.2 µM: RXF 393 renal

CC1=NN(c2cccc(Cl)c2)C(=N/c2nc3ccccc3s2)/C1=C\c1cccs1
93.4 µM: K-562 leukemia
60.2 µM: U251 CNS
64.8 µM: SR leukemia
> 100 µM: HCT-116 colon | SF-295 CNS | SF-268 CNS | SK-OV-3 ovarian | SF-539 CNS | PC-3 prostate | CAKI-1 renal | OVCAR-4 ovarian | UACC-257 melanoma | RXF 393 renal | HOP-92 NSCLC | OVCAR-5 ovarian | NCI-H460 lung | NCI-H226 lung | SK-MEL-5 melanoma | IGROV1 ovarian | SW-620 colon | MCF7 breast | MDA-MB-435 | EKVX NSCLC | T-47D breast | KM12 colon | MDA-MB-231 breast | HCC-2998 colon | OVCAR-8 ovarian | MDA-N | TK-10 renal | SK-MEL-28 melanoma | HT29 colon | UO-31 renal | LOX IMVI melanoma | HCT-15 colon | SNB-75 CNS | M14 melanoma | HOP-62 NSCLC | DU-145 prostate | ACHN renal | 786-0 renal
65.4 µM: SK-MEL-2 melanoma
95.2 µM: MOLT-4 leukemia
82.5 µM: A498 renal
32.5 µM: RPMI-8226 leukemia
30.6 µM: HL-60(TB) leukemia
47.1 µM: CCRF-CEM leukemia
73 µM: HS 578T breast
45.5 µM: OVCAR-3 ovarian
56.5 µM: NCI/ADR-RES ovarian
93.8 µM: NCI-H522 lung
61.8 µM: NCI-H23 lung
